Measurements from patent US6528516B1, “Methods for reducing intraocular pressure using A3 adenosine receptor antagonists” (Trustees of the University of Pennsylvania, The Center for …, priority 1998, dated 2003).

Legend:
human A3 receptor = biological target: T1, human A3 receptor (Homo sapiens, UniProt P0DMS8); assay: Adenylate cyclase assay, CHO cell membranes, forskolin stimulated; assay type: biochemical; conditions: forskolin 1 μM
T1 sequence (P0DMS8 1-318): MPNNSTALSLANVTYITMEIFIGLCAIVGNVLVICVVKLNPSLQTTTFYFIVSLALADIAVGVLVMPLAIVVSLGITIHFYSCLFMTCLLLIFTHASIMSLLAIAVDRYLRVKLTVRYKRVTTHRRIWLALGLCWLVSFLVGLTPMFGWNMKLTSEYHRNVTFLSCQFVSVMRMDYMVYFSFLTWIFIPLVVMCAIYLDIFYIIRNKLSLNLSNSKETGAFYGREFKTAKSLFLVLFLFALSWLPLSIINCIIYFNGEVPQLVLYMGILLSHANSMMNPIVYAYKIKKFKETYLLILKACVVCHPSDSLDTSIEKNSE

HCE cells = assay: Free intracellular Ca2+ in HCE cells (fura-2); assay type: cell-based, human
Protocol: In other cells, stimulation of the A3-receptor can lead to an elevation of intracellular Ca^2+(Kohno et al., supra.), so intracellular Ca^2+was monitored in HCE cells to provide an additional physiologic assay for the presence of A3 receptors. HCE cells grown on coverslips for 24-48 hrs were loaded with 1-5 μM fura-2 AM for 30-45 min at room temperature. The cells were subject to a post-incubation interval of 20-40 minutes at room temperature before recording began. The coverslips were mounted on a Nikon Diaphot microscope and visualized with a ×40 oil-immersion fluorescence objective. The emitted fluorescence (510 nm) from 10-12 confluent cells was acquired at a sampling frequency of 1 Hz following excitation at 340 nm and 380 nm, and the ratio was determined with a Delta-Ram system and Felix software (Photon Technology International Inc., Princeton, N.J.).Cells were perfused with an isotonic solution consisting of (in mM) 105 NaCl, 6HEPES (acid), 4HEPES (Na^+), 2 CaCl2, 1 MgCl2, 4 KCl, 5 glucose and 90 mannitol, at an osmolality of 327 mOsm, pH 7.4. […]
where Rmin and Rmax are the ratio of fluorescence at […] in the absence of Ca^2+, and in the presence of saturating Ca^2+, respectively. R is the ratio measured experimentally. The S2f and S2b are the fluorescence emitted at 380 nM in the Ca^2+ free and Ca^2+ bound states respectively. […]

rabbit iris-ciliary body = assay: Short-circuit current across intact rabbit ciliary epithelium (iris-ciliary body), 5 mM Ba2+; conditions: 30 μM, solvent-corrected
From the text: Adult male Dutch belted rabbits weighing 1.8-2.4 kg (Ace Animals, Boyertown, Pa.) were anesthetized with pentobarbital and sacrificed (Carre et al., J. Membr. Biol. 146:293-305, 1995). After enucleation, the iris-ciliary body (I-CB) was isolated as previously described (Carre et al., 1995, supra.). The experiments were in accordance with the Resolution on the Use of Animals in Research of the Association for Research in Vision and Ophthalmology.
The pupil and central iris were occluded with a Lucite disc, and the iris-ciliary body was mounted between the two halves of a Lucite chamber (1). The annulus of exposed tissue provided a projected surface area of 0.93 cm^2. Preparations were continuously bubbled with 95%O2-5%CO2 for maintenance of pH 7.4 in a Ringer's solution comprising (in mM): 110.0 NaCl, 10.0HEPES (acid), 5.0HEPES (Na^+), 30.0 NaHCO3, 2.5 CaCl2, 1.2 MgCl2, 5.9 KCl, and 10.0 glucose, at an osmolality of 305 mOsm. BaCl2 (5 mM) was added to the solution to block K^+ currents. The transepithelial potential was fixed at 0 mV, corrected for solution series resistance, and the short-circuit current was monitored on a chart recorder. Data were digitally acquired at 10 Hz via a DigiData 1200A converter and AxoScope 1.1 software (Axon Instruments, Foster City, Calif.). Automatic averaging was performed with a reduction factor of 100 to achieve a final sampling rate of 6/min. […]

CNC(=O)[C@H]1O[C@@H](n2cnc3c(NCc4cccc(I)c4)ncnc32)[C@H](O)[C@@H]1O [IB-MECA, N^6-(3-iodobenzyl)-adenosine-5′-N-methyluronamide]
Maximal inhibition of adenylate cyclase (human A3 receptor): ~60 % of total stimulation | mean rise of intracellular Ca2+ (HCE cells; 100 nM IB-MECA): 17 ± 5 nM | mean rise of intracellular Ca2+ (HCE cells; 1 μM IB-MECA): 22 ± 6 nM | effect on short-circuit current (rabbit iris-ciliary body): significant increase in the short-circuit current
